Results published in paper PMC10776578, “Epstein-Barr virus-driven B cell lymphoma mediated by a direct LMP1-TRAF6 complex” (Nature Communications, 2024).

Assays:
TRAF6_346-504 = experiment: NMR spectroscopy (1H,15N HSQC) of TRAF6 with LMP1 peptide; format: binding, human; details: 90 μM 15N-TRAF6, five-fold excess peptide, PBS pH 7.4, 10% D2O, 298 K
Experimental: For NMR, a His-SUMO-TRAF6 fusion construct was expressed in E. coli Rosetta2 DE3 cells from pET-hSu-TRAF6_346-504. The recombinant protein was uniformly labeled with ^15N by growing expression cultures in ^15N-autoinduction medium. TRAF6 protein was purified from cell lysate via IMAC using a Ni-NTA column. After elution, the protein was transferred to 100 mM Tris-HCl pH 8.0, 300 mM NaCl, 20 mM imidazole, and 5 mM β-mercaptoethanol. SUMO-hydrolase dtUD1 was added (ratio 1:50) and incubated overnight at 4 °C. After cleavage, the protein was subjected to a second Ni-NTA affinity chromatography step and then further purified via size-exclusion chromatography using a Superdex 75 10/300 GL column (Äkta system, GE Healthcare). SEC buffer was PBS ([…], 2.7 mM KCl, 10 mM Na2HPO4, 1.8 mM KH2PO4 pH 7.4, 5 mM β-ME) and was subsequently used in the following NMR experiments. NMR spectra were recorded at 298 K using a Bruker Avance 600 spectrometer with a QCI cryogenic probe and topspin v.3.2 software (Bruker BioSpin). Spectra were processed using NMRDraw v.8.7 of NMRPipe software[86] and analyzed with the CCPN Analysis software v.2.4.1[87]. NMR titrations were performed by recording ^1H,^15N HSQC experiments. For titrations of TRAF6, samples of 90 μM ^15N-labeled TRAF6 in PBS pH 7.4, 10% D2O, and 5 mM β-ME were used. […]

[1] = target: T1, GST-LMP1_181-386 / His-TRAF6_310-522 (Homo sapiens, UniProt Q9Y4K3); experiment: AlphaScreen PPI inhibition, LMP1-TRAF6; format: binding
T1 construct: recombinant GST-LMP1_181-386 and His-TRAF6_310-522; made in house; host or cells: E. coli (BL21 Codon Plus RIPL for the His-TRAF protein; DH5α or BL21 Codon Plus RIPL for the GST protein)
T1 sequence (Q9Y4K3 310-522): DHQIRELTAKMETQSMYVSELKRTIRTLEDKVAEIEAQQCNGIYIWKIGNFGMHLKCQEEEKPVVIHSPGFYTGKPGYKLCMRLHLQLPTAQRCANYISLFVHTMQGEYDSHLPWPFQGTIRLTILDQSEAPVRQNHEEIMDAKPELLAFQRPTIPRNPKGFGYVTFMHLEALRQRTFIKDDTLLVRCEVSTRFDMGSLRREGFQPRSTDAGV
Experimental: (§1) AlphaScreen experiments were performed in 96- or 384-well plates (Perkin Elmer, OptiPlate). In both assay formats, His-TRAF and GST-LMP1, GST-CD40, or GST-RANK proteins were incubated together in 40 µL of PBS (protein concentrations were calculated to the final reaction volume of 60 µL) supplemented with 0.5% BSA (Sigma, #A7030) and 0.1% Tween-20 (AppliChem, #A4974), for 1 h at room temperature (RT). If not indicated otherwise, standard protein concentrations were 300 nM for His-TRAF proteins and 100 nM for GST-LMP1 proteins. Ni-NTA-acceptor (Perkin Elmer, #6760619 C) and GST-acceptor (Perkin Elmer, # 6765300) beads were added each to a final concentration of 1–4 µg per mL in a final reaction volume of 60 µL and incubated for 1 h at RT in the dark. AlphaScreen PPI signals were measured in a CLARIOstar reader (BMG Labtech GmbH).
(§2) All statistical analyses were performed with Prism v10.1.0 software (GraphPad Software Inc.). Two-way ANOVA was performed on experiments with two factors of variance (Figs. 1e and 3a). […] For KD determination, the data from each experiment were cleaned for the hook effect (signal depletion by oversaturation of the beads) and analyzed using the equation one site-specific binding with hill slope (Figs. 1f–i, and Supplementary Fig. 1f). The IC50 was determined using the log(inhibitor) vs. response – variable slope (four parameters) equation (Fig. 8b and d). […]

[2] = target: T2, GST-CD40 / His-TRAF6_310-522 (Homo sapiens, UniProt Q9Y4K3); experiment: AlphaScreen PPI inhibition, CD40-TRAF6; format: binding; details: Figure 8 d; best-fit values; 0,03-30 µM peptide
T2 construct: AlphaScreen PPI experiments with GST-CD40 and His-TRAF6_310-522; made in house; host or cells: E. coli (BL21 Codon Plus RIPL for the His-TRAF protein; DH5α or BL21 Codon Plus RIPL for the GST protein)
T2 sequence (Q9Y4K3 310-522): as above
Experimental: as §1, §2

Question: Which “NMR signals of TRAF6 upon peptide addition (in words)” value (TRAF6_346-504) does the source give for “G378PVQLSYYD [LMP1 peptide G378PVQLSYYD, LMP1 peptide used in NMR titration]” here?
Answer: The value was “the signals corresponding to some of the TRAF6 residues were broadened beyond detection”.

Question: DRQIKIWFQNRRMKWKK [control peptide] was tested. Which “inhibition of LMP1-TRAF6 interaction (in words)” value [1] did it give?
Answer: The value was “inactive”.

Question: And the “inhibition of CD40-TRAF6 interaction (in words)” value [2]?
Answer: The value was “no inhibition”.
